Legend:
[1] = molecular target: T1, Cathepsin K (Homo sapiens, UniProt P43235); experiment: Inhibitory concentration against recombinant human cathepsin K determined in a fluorescence assay using 10 uM Cbz-Phe-Arg-AMC as substrate
T1 sequence (P43235 whole entry): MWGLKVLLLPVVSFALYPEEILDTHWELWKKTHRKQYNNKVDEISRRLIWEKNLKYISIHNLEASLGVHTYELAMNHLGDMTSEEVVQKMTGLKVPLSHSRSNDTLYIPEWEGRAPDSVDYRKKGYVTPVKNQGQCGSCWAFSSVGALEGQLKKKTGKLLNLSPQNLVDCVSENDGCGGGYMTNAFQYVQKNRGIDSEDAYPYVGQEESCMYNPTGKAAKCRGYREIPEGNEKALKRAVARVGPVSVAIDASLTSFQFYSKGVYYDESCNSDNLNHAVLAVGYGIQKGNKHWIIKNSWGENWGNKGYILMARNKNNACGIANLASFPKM

[2] = molecular target: Procathepsin L (Homo sapiens, UniProt P07711); experiment: Inhibitory concentration against recombinant human cathepsin L was determined in a fluorescence assay using 5 uM Cbz-Phe-Arg-AMC as substrate
Sequence of Procathepsin L (P07711 whole entry): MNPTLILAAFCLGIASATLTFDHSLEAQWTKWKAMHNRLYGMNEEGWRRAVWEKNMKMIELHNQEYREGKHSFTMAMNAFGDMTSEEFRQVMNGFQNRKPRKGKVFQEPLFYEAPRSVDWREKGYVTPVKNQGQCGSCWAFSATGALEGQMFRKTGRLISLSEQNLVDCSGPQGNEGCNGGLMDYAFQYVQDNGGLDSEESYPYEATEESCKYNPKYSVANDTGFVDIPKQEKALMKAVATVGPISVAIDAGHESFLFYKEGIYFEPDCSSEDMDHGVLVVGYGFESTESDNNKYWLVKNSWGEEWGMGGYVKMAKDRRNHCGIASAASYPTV

[3] = molecular target: Cathepsin B (Homo sapiens, UniProt P07858); experiment: Inhibitory concentration against recombinant human cathepsin B was determined in a fluorescence assay using 10 uM Cbz-Phe-Arg-AMC as substrate

SMILES | IC50 [1] [nM] | IC50 [2] [nM] | IC50 [3] [nM]
CCCC[C@@H](C=O)NC(=O)OC(Cc1ccccc1)Cc1ccccc1 | 71 | – | –
CCCC[C@@H](C=O)NC(=O)O[C@H](Cc1ccccc1)CC(C)C | 6.5 | – | –
CCCC[C@@H](C=O)NC(=O)OCCc1ccccc1 | 270 | – | –
CCCC[C@@H](C=O)NC(=O)O[C@@H](C)CC1CCCCC1 | 2.7 | 270 | 400
CCCC[C@@H](C=O)NC(=O)OC1(Cc2ccccc2)CCC1 | 2.4 | 1200 | 3400
CCCC[C@@H](C=O)NC(=O)OCc1ccccc1 | 540 | – | –
CCCC[C@@H](C=O)NC(=O)OC(C)(C)Cc1ccccc1 | 12 | – | –
CCCC[C@@H](C=O)NC(=O)OC(C)(C)Cc1ccc(Cl)cc1 | 4.6 | – | –
CCCC[C@@H](C=O)NC(=O)OC(C)(C)Cc1cccc(OC)c1 | 5.4 | – | –
CCCC[C@@H](C=O)NC(=O)OC(C)(C(C)C)C(C)C | 4.7 | – | –
CCCC[C@@H](C=O)NC(=O)OC1(Cc2ccccc2)CCCC1 | – | 2000 | 810
CCCC[C@@H](C=O)NC(=O)OC(C)(C)Cc1ccc(OC)cc1 | 2.9 | – | –
CCCC[C@@H](C=O)NC(=O)O[C@H](C)Cc1ccccc1 | 100 | – | –
CCCC[C@@H](C=O)NC(=O)OC(C)(C)Cc1ccccc1Cl | 3.1 | – | –
CCCC[C@@H](C=O)NC(=O)OC(CC)CC | 4 | – | –
CCCC[C@@H](C=O)NC(=O)OC(C)(C)Cc1cccc(-c2ccsc2)c1 | 7.6 | – | –
CCCC[C@@H](C=O)NC(=O)OCCCc1ccccc1 | 600 | – | –

Other lines, results leading:

IC50 [1] [nM] | IC50 [2] [nM] | IC50 [3] [nM] | SMILES
1.8 | 740 | 460 | CCCC[C@@H](C=O)NC(=O)O[C@@H](C)Cc1ccccc1
0.13 | 15 | 72 | CCCC[C@@H](C=O)NC(=O)O[C@@H](CC)Cc1ccccc1
1.5 | – | – | CCCC[C@@H](C=O)NC(=O)O[C@@H](CCC)Cc1ccccc1
1.1 | – | – | CCCC[C@@H](C=O)NC(=O)OC(CC(C)C)CC(C)C
2.1 | 110 | 2200 | CCCC[C@@H](C=O)NC(=O)OC(CC)(CC)Cc1ccccc1
2 | 8500 | 12000 | CCCC[C@@H](C=O)NC(=O)OC1(Cc2ccccc2)CCCCC1
0.56 | – | – | CCCC[C@@H](C=O)NC(=O)OC(C(C)C)C(C)C
0.87 | – | – | CCCC[C@@H](C=O)NC(=O)OC(CCC)CCC

Reference: ChEMBL document CHEMBL1147461, “Exploration of the P2-P3 SAR of aldehyde cathepsin K inhibitors” (Bioorg Med Chem Lett, 2004)
